This experiment relates to MV-4-11 cells. As to the kind of experiment: Gene expression microarray analysis (Affymetrix PrimeView) and GSEA. In kind it is cell-based, human. Also on record: RFU PODN (11730768_x_at) / Fold change /veh PODN (11730768_x_at) / RFU LINC00158 (11744669_a_at) / Fold change /veh LINC00158 (11744669_a_at) / RFU DUSP10 (11751237_a_at) / Fold change /veh DUSP10 (11751237_a_at) / RFU ID3 (11757404_x_at) / Fold change /veh ID3 (11757404_x_at) / RFU PLEKHG5 (11737974_s_at) / Fold change /veh PLEKHG5 (11737974_s_at) / RFU LRRC4B (11730491_at) / Fold change /veh LRRC4B (11730491_at) / RFU GIMAP4 (11747438_a_at) / Fold change /veh GIMAP4 (11747438_a_at) / RFU KRT8 (11758183_x_at) / Fold change /veh KRT8 (11758183_x_at) / RFU CNN1 (11734310_a_at) / Fold change /veh CNN1 (11734310_a_at) / RFU VPS37D (11726825_at) / Fold change /veh VPS37D (11726825_at) / RFU C10orf10 (11716522_x_at) / Fold change /veh C10orf10 (11716522_x_at) / RFU KIR2DL2 /// KIR2DL4 /// KIR2DL5A /// KIR2DL5B /// KIR2DS1 /// KIR2DS2 /// KIR2DS3 /// KIR2DS4 /// KIR3DL3 /// KIR3DL3 /// KIR3DS1 (11738374_at) / Fold change /veh KIR2DL2 /// KIR2DL4 /// KIR2DL5A /// KIR2DL5B /// KIR2DS1 /// KIR2DS2 /// KIR2DS3 /// KIR2DS4 /// KIR3DL3 /// KIR3DL3 /// KIR3DS1 (11738374_at) / RFU C1QL1 (11718748_at) / Fold change /veh C1QL1 (11718748_at) / RFU TMPRSS4 (11747572_a_at) / Fold change /veh TMPRSS4 (11747572_a_at) / RFU HAMP (11756126_x_at) / Fold change /veh HAMP (11756126_x_at) / RFU RNFT2 (11725882_a_at) / Fold change /veh RNFT2 (11725882_a_at) / RFU NR4A2 (11747474_a_at) / Fold change /veh NR4A2 (11747474_a_at) / RFU ABCC12 (11746883_a_at) / Fold change /veh ABCC12 (11746883_a_at) / RFU TMEM136 (11760407_x_at) / Fold change /veh TMEM136 (11760407_x_at) / RFU CLDN22 /// WWC2 (11732394_at) / Fold change /veh CLDN22 /// WWC2 (11732394_at) / RFU HLA-DPB1 (11760878_x_at) / Fold change /veh HLA-DPB1 (11760878_x_at) / RFU SPINT1 (11716480_a_at) / Fold change /veh SPINT1 (11716480_a_at) / RFU GAP43 (11754022_s_at) / Fold change /veh GAP43 (11754022_s_at) / RFU A4GNT (11735810_at) / Fold change /veh A4GNT (11735810_at) / RFU PRB3 (11715151_x_at) / Fold change /veh PRB3 (11715151_x_at) / RFU TUBB4B (11761932_at) / Fold change /veh TUBB4B (11761932_at) / RFU CAPN14 (11732068_a_at) / Fold change /veh CAPN14 (11732068_a_at) / RFU TMCC2 (11721928_a_at) / Fold change /veh TMCC2 (11721928_a_at) / RFU IRGQ (11745062_a_at) / Fold change /veh IRGQ (11745062_a_at) / RFU FAM174B (11720279_a_at) / Fold change /veh FAM174B (11720279_a_at) / RFU TMPRSS4 (11748680_a_at) / Fold change /veh TMPRSS4 (11748680_a_at) / RFU FAM212B (11763350_a_at) / Fold change /veh FAM212B (11763350_a_at) / RFU PLEKHG5 (11743358_a_at) / Fold change /veh PLEKHG5 (11743358_a_at) / RFU ZSCAN30 (11745921_a_at) / Fold change /veh ZSCAN30 (11745921_a_at) / RFU CMKLR1 (11741424_a_at) / Fold change /veh CMKLR1 (11741424_a_at) / RFU LOC101060620 /// MAPK8IP1 (11723275_at) / Fold change /veh LOC101060620 /// MAPK8IP1 (11723275_at) / RFU SPTSSB (11747773_x_at) / Fold change /veh SPTSSB (11747773_x_at) / RFU PRSS12 (11739890_at) / Fold change /veh PRSS12 (11739890_at) / RFU BIN1 (11741810_x_at) / Fold change /veh BIN1 (11741810_x_at) / RFU WNT11 (11732464_a_at) / Fold change /veh WNT11 (11732464_a_at) / RFU C10orf10 (11716521_a_at) / Fold change /veh C10orf10 (11716521_a_at) / RFU C5orf56 (11738089_at) / Fold change /veh C5orf56 (11738089_at) / RFU CYB561 (11721691_x_at) / Fold change /veh CYB561 (11721691_x_at) / RFU ANKRD19P (11752326_a_at) / Fold change /veh ANKRD19P (11752326_a_at) / RFU OR2T12 /// OR2T33 /// OR2T8 (11738714_s_at) / Fold change /veh OR2T12 /// OR2T33 /// OR2T8 (11738714_s_at) / RFU VCAN (11748164_a_at) / Fold change /veh VCAN (11748164_a_at) / RFU JSRP1 (11732532_at) / Fold change /veh JSRP1 (11732532_at) / RFU KRTAP10-11 (11738290_x_at) / Fold change /veh KRTAP10-11 (11738290_x_at) / RFU MYO3A (11730013_a_at) / Fold change /veh MYO3A (11730013_a_at) / RFU EBF3 (11725865_a_at) / Fold change /veh EBF3 (11725865_a_at) / RFU CAMK2N1 (11719241_x_at) / Fold change /veh CAMK2N1 (11719241_x_at) / RFU C5orf56 (11738088_a_at) / Fold change /veh C5orf56 (11738088_a_at) / RFU OLFML3 (11715873_a_at) / Fold change /veh OLFML3 (11715873_a_at) / RFU LOC100653217 /// NTM (11731650_a_at) / Fold change /veh LOC100653217 /// NTM (11731650_a_at) / RFU MAPK11 (11762145_a_at) / Fold change /veh MAPK11 (11762145_a_at) / RFU FIZ1 (11724087_x_at) / Fold change /veh FIZ1 (11724087_x_at) / RFU OASL (11726364_x_at) / Fold change /veh OASL (11726364_x_at) / RFU SOX15 (11748057_x_at) / Fold change /veh SOX15 (11748057_x_at) / RFU CD79A (11719716_a_at) / Fold change /veh CD79A (11719716_a_at) / RFU HIST1H1D (11736915_at) / Fold change /veh HIST1H1D (11736915_at) / RFU CASKIN2 (11723855_a_at) / Fold change /veh CASKIN2 (11723855_a_at) / RFU LOC730098 (11760151_x_at) / Fold change /veh LOC730098 (11760151_x_at) / RFU OR4N2 (11742367_at) / Fold change /veh OR4N2 (11742367_at) / RFU PRRT2 (11749266_a_at) / Fold change /veh PRRT2 (11749266_a_at) / RFU SNX32 (11753110_a_at) / Fold change /veh SNX32 (11753110_a_at) / RFU CDHR5 (11726645_a_at) / Fold change /veh CDHR5 (11726645_a_at) / RFU RCAN1 (11760418_a_at) / Fold change /veh RCAN1 (11760418_a_at) / RFU FAM167A (11723789_a_at) / Fold change /veh FAM167A (11723789_a_at) / RFU FAM26E (11764081_at) / Fold change /veh FAM26E (11764081_at) / RFU ISYNA1 (11749810_s_at) / Fold change /veh ISYNA1 (11749810_s_at) / RFU ACY1 (11761880_at) / Fold change /veh ACY1 (11761880_at) / RFU 11764098_at / Fold change /veh 11764098_at / RFU SAMD14 (11745864_x_at) / Fold change /veh SAMD14 (11745864_x_at) / RFU NPB (11741838_a_at) / Fold change /veh NPB (11741838_a_at) / RFU TMPRSS6 (11731388_a_at) / Fold change /veh TMPRSS6 (11731388_a_at) / RFU KRTAP10-2 (11738614_at) / Fold change /veh KRTAP10-2 (11738614_at) / RFU ARHGAP8 /// PRR5-ARHGAP8 (11727945_x_at) / Fold change /veh ARHGAP8 /// PRR5-ARHGAP8 (11727945_x_at) / RFU KRTAP5-7 /// NADSYN1 (11734609_at) / Fold change /veh KRTAP5-7 /// NADSYN1 (11734609_at) / RFU RASL12 (11751679_a_at) / Fold change /veh RASL12 (11751679_a_at) / RFU CDKN2B (11736163_a_at) / Fold change /veh CDKN2B (11736163_a_at) / RFU PRF1 (11729649_at) / Fold change /veh PRF1 (11729649_at) / RFU, ZNF638 /// ZNF638-IT1 / Fold change vs veh, ZNF638 /// ZNF638-IT1 / RFU, PANK3 / Fold change vs veh, PANK3 / RFU, SH3YL1 / Fold change vs veh, SH3YL1 / RFU, ZEB2 / Fold change vs veh, ZEB2 / RFU, NRIP1 / Fold change vs veh, NRIP1 / RFU, PTTG1IP / Fold change vs veh, PTTG1IP / RFU, CAPN2 / Fold change vs veh, CAPN2 / RFU, MED14 / Fold change vs veh, MED14 / RFU, SNORA58 / Fold change vs veh, SNORA58 / RFU, C1orf63 / Fold change vs veh, C1orf63 / RFU, LRRFIP1 / Fold change vs veh, LRRFIP1 / RFU, NDUFAF7 / Fold change vs veh, NDUFAF7 / RFU, SLC12A2 / Fold change vs veh, SLC12A2 / RFU, IBTK / Fold change vs veh, IBTK / RFU, ESF1 / Fold change vs veh, ESF1 / Fold change vs veh, TMEM50B / RFU, TAOK1 / Fold change vs veh, TAOK1 / RFU, ACBD3 / Fold change vs veh, ACBD3 / RFU, TMA16 / Fold change vs veh, TMA16 / RFU, RWDD3 / Fold change vs veh, RWDD3 / RFU, BCAT1 / Fold change vs veh, BCAT1 / RFU, EDEM3 / Fold change vs veh, EDEM3 / RFU, TMEM33 / Fold change vs veh, TMEM33 / RFU, WDR75 / Fold change vs veh, WDR75 / RFU, AHCTF1 / Fold change vs veh, AHCTF1 / RFU, TFRC / Fold change vs veh, TFRC / RFU, ZDHHC17 / Fold change vs veh, ZDHHC17 / RFU, NOM1 / Fold change vs veh, NOM1 / RFU, ARL8B / Fold change vs veh, ARL8B / RFU, ZBTB11 / Fold change vs veh, ZBTB11 / RFU, TAMM41 / Fold change vs veh, TAMM41 / RFU, KIAA1704 /// LOC100996395 / Fold change vs veh, KIAA1704 /// LOC100996395 / RFU, ING1 / Fold change vs veh, ING1 / RFU, TRMT61B / Fold change vs veh, TRMT61B / RFU, FUBP3 / Fold change vs veh, FUBP3 / RFU, TP53 / Fold change vs veh, TP53 / RFU, TNKS2 / Fold change vs veh, TNKS2 / RFU, ZFP14 / Fold change vs veh, ZFP14 / RFU, ACTR2 / Fold change vs veh, ACTR2 / RFU, PPP3R1 / Fold change vs veh, PPP3R1 / RFU, PIK3R1 / Fold change vs veh, PIK3R1 / RFU, HNRNPA1 / Fold change vs veh, HNRNPA1 / RFU, RNF170 / Fold change vs veh, RNF170 / RFU, ZNF28 / Fold change vs veh, ZNF28 / RFU, RNGTT / Fold change vs veh, RNGTT / RFU, OGT / Fold change vs veh, OGT / RFU, BRD1 / Fold change vs veh, BRD1 / RFU, MARS / Fold change vs veh, MARS / RFU, ZNF655 / Fold change vs veh, ZNF655 / RFU, FAHD1 / Fold change vs veh, FAHD1 / RFU, BDP1 / Fold change vs veh, BDP1 / RFU, LRRCC1 / Fold change vs veh, LRRCC1 / RFU, ARID1A / Fold change vs veh, ARID1A / RFU, ZNF146 / Fold change vs veh, ZNF146 / RFU, ZNF330 / Fold change vs veh, ZNF330 / RFU, GPN3 / Fold change vs veh, GPN3 / RFU, C9orf123 / Fold change vs veh, C9orf123 / RFU, N4BP2L2 / Fold change vs veh, N4BP2L2 / RFU, ARFIP1 / Fold change vs veh, ARFIP1 / RFU, FAM179B / Fold change vs veh, FAM179B / RFU, BCL10 / Fold change vs veh, BCL10 / RFU, UHRF1BP1L / Fold change vs veh, UHRF1BP1L / RFU, BET1 / Fold change vs veh, BET1 / RFU, CNOT2 / Fold change vs veh, CNOT2 / RFU, ZNF268 / Fold change vs veh, ZNF268 / Fold change vs veh, ZNF507 / RFU, DGCR2 / Fold change vs veh, DGCR2 / RFU, WDSUB1 / Fold change vs veh, WDSUB1 / Fold change vs veh, HSP90B1 /// MIR3652 / RFU, ADSS / Fold change vs veh, ADSS / RFU, GK / Fold change vs veh, GK / RFU, ZNF148 / Fold change vs veh, ZNF148 / RFU, TAF9 / Fold change vs veh, TAF9 / RFU, SLC1A5 / Fold change vs veh, SLC1A5 / RFU, SLMO2 / Fold change vs veh, SLMO2 / RFU, ABCC4 / Fold change vs veh, ABCC4 / RFU, LOC101060439 /// RAP1B / Fold change vs veh, LOC101060439 /// RAP1B / RFU, RFX7 / Fold change vs veh, RFX7 / RFU, GTPBP10 / Fold change vs veh, GTPBP10 / RFU, CNEP1R1 / Fold change vs veh, CNEP1R1 / RFU, BIVM-ERCC5 /// ERCC5 / Fold change vs veh, BIVM-ERCC5 /// ERCC5 / RFU, ILF3 / Fold change vs veh, ILF3 / RFU 11762660_at / Fold change /veh 11762660_at / RFU VCAN (11757783_s_at) / Fold change /veh VCAN (11757783_s_at) / RFU DDX43 (11728927_at) / Fold change /veh DDX43 (11728927_at) / RFU KRT8 (11758188_x_at) / Fold change /veh KRT8 (11758188_x_at) / RFU NKD1 (11759106_at) / Fold change /veh NKD1 (11759106_at) / RFU SRD5A1 (11742802_a_at) / Fold change /veh SRD5A1 (11742802_a_at) / RFU TPSAB1 /// TPSB2 (11721975_s_at) / Fold change /veh TPSAB1 /// TPSB2 (11721975_s_at) / RFU GSTM3 (11746129_a_at) / Fold change /veh GSTM3 (11746129_a_at) / RFU IL23R (11737362_x_at) / Fold change /veh IL23R (11737362_x_at) / RFU TMEM51 (11727254_a_at) / Fold change /veh TMEM51 (11727254_a_at) / RFU PIWIL2 (11732686_x_at) / Fold change /veh PIWIL2 (11732686_x_at) / RFU ORM1 (11744905_x_at) / Fold change /veh ORM1 (11744905_x_at) / RFU CCDC152 (11743942_at) / Fold change /veh CCDC152 (11743942_at) / RFU ECM1 (11717891_a_at) / Fold change /veh ECM1 (11717891_a_at) / RFU IL23R (11748794_a_at) / Fold change /veh IL23R (11748794_a_at) / RFU TNFAIP8L3 (11732012_x_at) / Fold change /veh TNFAIP8L3 (11732012_x_at) / RFU MBOAT4 (11741988_at) / Fold change /veh MBOAT4 (11741988_at) / RFU 11764193_at / Fold change /veh 11764193_at / RFU TMEM53 (11763286_at) / Fold change /veh TMEM53 (11763286_at) / RFU MAGEB2 (11727129_at) / Fold change /veh MAGEB2 (11727129_at) / RFU TMEM200A (11744735_a_at) / Fold change /veh TMEM200A (11744735_a_at) / RFU CCDC152 (11751479_a_at) / Fold change /veh CCDC152 (11751479_a_at) / RFU FAM211A (11726209_a_at) / Fold change /veh FAM211A (11726209_a_at) / RFU RGS16 (11746705_a_at) / Fold change /veh RGS16 (11746705_a_at) / RFU VCAN (11755009_s_at) / Fold change /veh VCAN (11755009_s_at) / RFU RHOB (11743442_s_at) / Fold change /veh RHOB (11743442_s_at) / RFU RGS16 (11720943_a_at) / Fold change /veh RGS16 (11720943_a_at) / RFU RGS16 (11720944_at) / Fold change /veh RGS16 (11720944_at) / RFU, VPS4B / Fold change vs veh, VPS4B / RFU, CREB1 / Fold change vs veh, CREB1 / RFU, DNAJC13 / Fold change vs veh, DNAJC13 / RFU, GNAQ / Fold change vs veh, GNAQ / RFU, CDK5R1 / Fold change vs veh, CDK5R1 / RFU, ZRANB3 / Fold change vs veh, ZRANB3 / RFU, CUL4A / Fold change vs veh, CUL4A / RFU, CCNY / Fold change vs veh, CCNY / RFU, UFL1 / Fold change vs veh, UFL1 / RFU, COG3 / Fold change vs veh, COG3 / RFU, DIAPH2 / Fold change vs veh, DIAPH2 / RFU, SKA2 / Fold change vs veh, SKA2 / RFU, AFF3 / Fold change vs veh, AFF3 / RFU, LMF1 / Fold change vs veh, LMF1 / RFU, IPO11 / Fold change vs veh, IPO11 / RFU, DFFB / Fold change vs veh, DFFB / RFU, FOXP1 / Fold change vs veh, FOXP1 / RFU, CARD8 / Fold change vs veh, CARD8 / RFU, STRN3 / Fold change vs veh, STRN3 / RFU, ADK / Fold change vs veh, ADK / RFU, RASSF2 / Fold change vs veh, RASSF2 / RFU, WIPF1 / Fold change vs veh, WIPF1 / RFU, LARP1B / Fold change vs veh, LARP1B / RFU, RASA1 / Fold change vs veh, RASA1 / RFU, RB1 / Fold change vs veh, RB1 / RFU, PPFIA1 / Fold change vs veh, PPFIA1 / RFU, MAT2A / Fold change vs veh, MAT2A / RFU, CCT5 / Fold change vs veh, CCT5 / RFU, WDR92 / Fold change vs veh, WDR92 / RFU, CUX1 / Fold change vs veh, CUX1 / RFU, TTC7A / Fold change vs veh, TTC7A / RFU, TMEM135 / Fold change vs veh, TMEM135 / RFU, DEPTOR / Fold change vs veh, DEPTOR / RFU, CPM / Fold change vs veh, CPM / RFU, DNAJB6 / Fold change vs veh, DNAJB6 / RFU, CACNA2D3 / Fold change vs veh, CACNA2D3 / RFU, DTX4 / Fold change vs veh, DTX4 / RFU, TFCP2 / Fold change vs veh, TFCP2 / RFU, GMCL1 /// GMCL1P1 / Fold change vs veh, GMCL1 /// GMCL1P1 / RFU, AEBP2 / Fold change vs veh, AEBP2 / RFU, SNHG1 /// SNORD22 /// SNORD25 /// SNORD26 /// SNORD27 /// SNORD28 /// SNORD29 /// SNORD31 / Fold change vs veh, SNHG1 /// SNORD22 /// SNORD25 /// SNORD26 /// SNORD27 /// SNORD28 /// SNORD29 /// SNORD31 / Fold change (Aza/veh), C12orf56 (ProbeSet 11735607_a_at) / Fold change (ACY-1035/veh), C12orf56 (ProbeSet 11735607_a_at) / Fold change (Aza/veh), FGFR1OP (ProbeSet 11751329_s_at) / Fold change (ACY-1035/veh), FGFR1OP (ProbeSet 11751329_s_at) / Fold change (Aza/veh), VPS36 (ProbeSet 11739960_a_at) / Fold change (ACY-1035/veh), VPS36 (ProbeSet 11739960_a_at) / RFU SYPL1 (11715823_x_at) / Fold change /veh SYPL1 (11715823_x_at) / RFU IGFBP7 (11715501_s_at) / Fold change /veh IGFBP7 (11715501_s_at) / RFU REEP3 (11722064_at) / Fold change /veh REEP3 (11722064_at) / RFU IGLL1 (11728026_x_at) / Fold change /veh IGLL1 (11728026_x_at): dose or concentration left out as unconfirmed. Particulars: ProbeSet 11718569_a_at; LIST D.

The structures appear in SMILES notation.

For `Nc1ncn([C@@H]2O[C@H](CO)[C@@H](O)[C@H]2O)c(=O)n1` [azacitidine], the “RFU, WIPF1” value amounted to 81.62 RFU.

Source of the values: paper PMC5218480 (PLoS ONE, 2017).
